Source: patent US12233081B2, “Hygromycin a compounds and methods of treating spirochete diseases” (priority 2018, dated 2025)
Read-outs that look alike come from different tables or passages of the source.

Assays:
gut microbiome = conditions: mouse, in vivo
B. burgdorferi N40 = experiment: C3H mice infected with Borrelia burgdorferi, cell counts in skin tissue; assay type: in vivo; conditions: for # of B. burgdorferi cells in 100 mg skin tissue: 5 days of dosing
Protocol: C3H mice (Charles River Laboratories) are used in classical Lyme disease infection model. Mice were rested for more than 1 day after delivery before infected with 10^5 B. burgdorferi N40 cells by subcutaneous injection. Infection was established for 3 weeks. 100 μl of saline, ceftriaxone or hygromycin A was administered by IP injection. Compounds of the invention can also be tested for efficacy as described herein.
Ceftriaxone (USP grade) was purchased from Sigma-Aldrich. Saline was purchased from Baxter Healthcare. Ceftriaxone powder was dissolved into saline to 31.2 mg/ml solution. Hygromycin A stock solution at 200 mg/ml was diluted into saline to make 50 mg/ml (250 mg/kg), 15 mg/ml (75 mg/kg), 14 mg/ml (70 mg/kg), 10 mg/ml (50 mg/kg) and 5 mg/ml (25 mg/kg) solutions.
In the B. burgdorferi mice infection model, skin is the tissue with highest bacterial burden. After sacrificing mice 2 days after 5 days of dosing, we took 100 mg skin tissue from mouse ear, homogenized the tissue and plated on BSK-II semi-agar plates for cell number counts. No colony appearing on the plates is considered as clearance of the infection.

CC(=O)[C@H]1O[C@@H](Oc2ccc(/C=C(\C)C(=O)N[C@@H]3[C@H](O)[C@@H](O)[C@H]4OCO[C@H]4[C@@H]3O)cc2O)[C@@H](O)[C@@H]1O [Hygromycin A]
Camobacteriaceae change in percent relative abundance (gut microbiome; C3H, ip, 50 mg/kg, 5 days): −0.001% | Chitinophagaceae change in percent relative abundance (gut microbiome; C3H, ip, 50 mg/kg, 5 days): 0.000% | Christensenellaceae change in percent relative abundance (gut microbiome; C3H, ip, 50 mg/kg, 5 days): 0.000% | Clostridiaceae change in percent relative abundance (gut microbiome; C3H, ip, 50 mg/kg, 5 days): −0.066% | Clostridiales change in percent relative abundance (gut microbiome; C3H, ip, 50 mg/kg, 5 days): −0.099% | Clostridiales family xi. incertae sedis change in percent relative abundance (gut microbiome; C3H, ip, 50 mg/kg, 5 days): −0.047% | Clostridiales family xiii. incertae sedis change in percent relative abundance (gut microbiome; C3H, ip, 50 mg/kg, 5 days): −0.013% | Coriobacteriaceae change in percent relative abundance (gut microbiome; C3H, ip, 50 mg/kg, 5 days): 0.014% | overall disruption to the gut microbiome (gut microbiome): considerably less severe | Acholeplasmataceae change in percent relative abundance (gut microbiome; ip, 50 mg/kg): 0.003% | Aerococcaceae change in percent relative abundance (gut microbiome; ip, 50 mg/kg): 0.001% | Anaerolineaceae change in percent relative abundance (gut microbiome; ip, 50 mg/kg): 0.000% | Anaeroplasmataceae change in percent relative abundance (gut microbiome; ip, 50 mg/kg): −0.007% | Anaplasmataceae change in percent relative abundance (gut microbiome; ip, 50 mg/kg): 0.000% | Aspergillaceae change in percent relative abundance (gut microbiome; ip, 50 mg/kg): 0.000% | Asteraceae change in percent relative abundance (gut microbiome; ip, 50 mg/kg): 0.001% | Bacillaceae change in percent relative abundance (gut microbiome; ip, 50 mg/kg): −0.021% | Bacillales change in percent relative abundance (gut microbiome; ip, 50 mg/kg): −0.108% | Bacteroidaceae change in percent relative abundance (gut microbiome; ip, 50 mg/kg): −14.397% | Bifidobacteriaceae change in percent relative abundance (gut microbiome; ip, 50 mg/kg): 0.000% | Candidatus saccharibacteria change in percent relative abundance (gut microbiome; ip, 50 mg/kg): −0.022% | Corynebacteriaceae change in percent relative abundance (gut microbiome; ip, 50 mg/kg): 0.000% | Cytophagaceae change in percent relative abundance (gut microbiome; ip, 50 mg/kg): 0.000% | Deferribacteraceae change in percent relative abundance (gut microbiome; ip, 50 mg/kg): 0.368% | Defluviitaleaceae change in percent relative abundance (gut microbiome; ip, 50 mg/kg): −0.001% | Desulfobacteraceae change in percent relative abundance (gut microbiome; ip, 50 mg/kg): 0.000% | Enterobacteriaceae change in percent relative abundance (gut microbiome; ip, 50 mg/kg): 1.250% | Enterococcaceae change in percent relative abundance (gut microbiome; ip, 50 mg/kg): 0.036% | Erysipelotrichaceae change in percent relative abundance (gut microbiome; ip, 50 mg/kg): 5.307% | Eubacteriaceae change in percent relative abundance (gut microbiome; ip, 50 mg/kg): 0.037% | Fabaceae change in percent relative abundance (gut microbiome; ip, 50 mg/kg): 0.000% | Flavobacteriaceae change in percent relative abundance (gut microbiome; ip, 50 mg/kg): 0.000% | Fusobacteriaceae change in percent relative abundance (gut microbiome; ip, 50 mg/kg): 0.000% | Gammaproteobacteria change in percent relative abundance (gut microbiome; ip, 50 mg/kg): −0.020% | Gloeobacteraceae change in percent relative abundance (gut microbiome; ip, 50 mg/kg): −0.020% | Gracilibacteraceae change in percent relative abundance (gut microbiome; ip, 50 mg/kg): −0.112% | Halomonadaceae change in percent relative abundance (gut microbiome; ip, 50 mg/kg): 0.000% | Hylidae change in percent relative abundance (gut microbiome; ip, 50 mg/kg): 0.000% | Kopriimonadaceae change in percent relative abundance (gut microbiome; ip, 50 mg/kg): 0.000% | Lachnospiraceae change in percent relative abundance (gut microbiome; ip, 50 mg/kg): 1.241% | Lactobacillaceae change in percent relative abundance (gut microbiome; ip, 50 mg/kg): 9.667% | Leuconostocaceae change in percent relative abundance (gut microbiome; ip, 50 mg/kg): −0.001% | Methylobacteriaceae change in percent relative abundance (gut microbiome; ip, 50 mg/kg): 0.000% | Microbacteriaceae change in percent relative abundance (gut microbiome; ip, 50 mg/kg): 0.000% | Mucoraceae change in percent relative abundance (gut microbiome; ip, 50 mg/kg): 0.000% | Nostocaceae change in percent relative abundance (gut microbiome; ip, 50 mg/kg): 0.000% | Onagraceae change in percent relative abundance (gut microbiome; ip, 50 mg/kg): 0.000% | Oscillatoriales change in percent relative abundance (gut microbiome; ip, 50 mg/kg): 0.000% | Oscillospiraceae change in percent relative abundance (gut microbiome; ip, 50 mg/kg): −0.009% | Paenibacillaceae change in percent relative abundance (gut microbiome; ip, 50 mg/kg): −0.001% | Pasteurellaceae change in percent relative abundance (gut microbiome; ip, 50 mg/kg): 0.000% | Pelobacteraceae change in percent relative abundance (gut microbiome; ip, 50 mg/kg): 0.000% | Peptococcaceae change in percent relative abundance (gut microbiome; ip, 50 mg/kg): −0.885% | Peptoniphilaceae change in percent relative abundance (gut microbiome; ip, 50 mg/kg): 0.000% | Peptostreptococcaceae change in percent relative abundance (gut microbiome; ip, 50 mg/kg): −0.194% | Physalacriaceae change in percent relative abundance (gut microbiome; ip, 50 mg/kg): 0.000% | Poaceae change in percent relative abundance (gut microbiome; ip, 50 mg/kg): 0.019% | Polyangiaceae change in percent relative abundance (gut microbiome; ip, 50 mg/kg): 0.000% | Porphyromonadaceae change in percent relative abundance (gut microbiome; ip, 50 mg/kg): −0.221% | Prevotellaceae change in percent relative abundance (gut microbiome; ip, 50 mg/kg): −0.319% | Pseudomonadaceae change in percent relative abundance (gut microbiome; ip, 50 mg/kg): 0.000% | Rhizobiaceae change in percent relative abundance (gut microbiome; ip, 50 mg/kg): 0.000% | Rhodobacteraceae change in percent relative abundance (gut microbiome; ip, 50 mg/kg): 0.000% | Rikenellaceae change in percent relative abundance (gut microbiome; ip, 50 mg/kg): −4.710% | Ruminococcaceae change in percent relative abundance (gut microbiome; ip, 50 mg/kg): 1.486% | Sphingomonadaceae change in percent relative abundance (gut microbiome; ip, 50 mg/kg): 0.000% | Spirochaetaceae change in percent relative abundance (gut microbiome; ip, 50 mg/kg): −0.074% | Spiroplasmataceae change in percent relative abundance (gut microbiome; ip, 50 mg/kg): −0.107% | Staphylococcaceae change in percent relative abundance (gut microbiome; ip, 50 mg/kg): 0.004% | Streptococcaceae change in percent relative abundance (gut microbiome; ip, 50 mg/kg): 2.055% | Thermoanaerobacteraceae change in percent relative abundance (gut microbiome; ip, 50 mg/kg): −0.018% | Veillonellaceae change in percent relative abundance (gut microbiome; ip, 50 mg/kg): 0.000% | Verrucomicrobiaceae change in percent relative abundance (gut microbiome; ip, 50 mg/kg): −0.017% | Xanthomonadaceae change in percent relative abundance (gut microbiome; ip, 50 mg/kg): 0.000% | Acholeplasmataceae change in percent relative abundance (gut microbiome; po, 50 mg/kg): 0.005% | Candidatus saccharibacteria change in percent relative abundance (gut microbiome; po, 50 mg/kg): −0.043% | # of B. burgdorferi cells in 100 mg skin tissue (B. burgdorferi N40; 25 mg/kg Oral gavage): <1 | # of B. burgdorferi cells in 100 mg skin tissue (B. burgdorferi N40; 50 mg/kg Oral gavage): <1 | # of B. burgdorferi cells in 100 mg skin tissue (B. burgdorferi N40; 70 mg/kg Oral gavage): <1 | # of B. burgdorferi cells in 100 mg skin tissue (B. burgdorferi N40; 75 mg/kg IP injection): <1 | # of B. burgdorferi cells in 100 mg skin tissue (B. burgdorferi N40; 250 mg/kg Oral gavage): <1 | clearance of the Borrelia burgdorferi infection (B. burgdorferi N40; 5 days of treatment, both IP injection and oral gavage): cleared the Borrelia burgdorferi infection
